From ChEMBL document CHEMBL1144455, “A small molecule-kinase interaction map for clinical kinase inhibitors” (Nat Biotechnol, 2005) come the findings set out here.

As a reminder, the Kd is the constant that tells how readily two partners part at equilibrium.

The structures appear in SMILES notation.

In assay [1] the target is Casein kinase I isoform gamma-1 (Homo sapiens, UniProt Q9HCP0).
The target in assay [2] is T1, Phosphorylase b kinase gamma catalytic chain, liver/testis isoform (Homo sapiens, UniProt P15735).
T1 sequence (P15735 whole entry): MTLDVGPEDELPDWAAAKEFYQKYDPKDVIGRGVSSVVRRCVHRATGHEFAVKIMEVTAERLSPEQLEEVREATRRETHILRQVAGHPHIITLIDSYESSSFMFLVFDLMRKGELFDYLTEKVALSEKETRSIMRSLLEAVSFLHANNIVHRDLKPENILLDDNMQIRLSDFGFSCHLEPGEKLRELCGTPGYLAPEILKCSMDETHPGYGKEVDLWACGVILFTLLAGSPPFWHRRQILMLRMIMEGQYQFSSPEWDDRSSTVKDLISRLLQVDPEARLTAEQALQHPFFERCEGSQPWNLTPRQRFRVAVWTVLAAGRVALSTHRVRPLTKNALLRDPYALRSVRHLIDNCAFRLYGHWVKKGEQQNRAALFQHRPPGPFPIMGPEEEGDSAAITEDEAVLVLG

Assay [3] deals with Ribosomal protein S6 kinase alpha-2 (Homo sapiens, UniProt Q15349).
Sequence of Ribosomal protein S6 kinase alpha-2 (Q15349 whole entry): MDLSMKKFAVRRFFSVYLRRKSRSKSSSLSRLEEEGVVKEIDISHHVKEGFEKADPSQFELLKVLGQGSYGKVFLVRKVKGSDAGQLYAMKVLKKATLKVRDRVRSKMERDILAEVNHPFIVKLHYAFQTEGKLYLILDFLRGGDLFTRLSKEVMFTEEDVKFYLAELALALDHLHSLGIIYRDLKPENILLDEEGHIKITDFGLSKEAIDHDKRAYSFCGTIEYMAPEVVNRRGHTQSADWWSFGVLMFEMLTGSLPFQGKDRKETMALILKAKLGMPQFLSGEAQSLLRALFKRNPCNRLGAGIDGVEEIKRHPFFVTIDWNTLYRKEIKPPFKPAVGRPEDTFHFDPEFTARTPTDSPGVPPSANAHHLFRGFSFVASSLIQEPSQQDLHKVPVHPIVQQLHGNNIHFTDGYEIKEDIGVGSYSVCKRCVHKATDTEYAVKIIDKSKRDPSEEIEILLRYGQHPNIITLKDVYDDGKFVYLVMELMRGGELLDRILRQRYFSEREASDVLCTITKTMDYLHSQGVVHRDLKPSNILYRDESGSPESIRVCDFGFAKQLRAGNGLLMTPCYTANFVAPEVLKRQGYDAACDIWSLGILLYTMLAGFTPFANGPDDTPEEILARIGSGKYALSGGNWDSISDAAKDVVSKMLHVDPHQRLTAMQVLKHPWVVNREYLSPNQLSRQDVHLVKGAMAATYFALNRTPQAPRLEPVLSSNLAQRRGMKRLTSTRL
Assay [4] concerns the target Serine/threonine-protein kinase PAK 5 (Homo sapiens, UniProt Q9P286).
For assay [5], the target named is Tyrosine-protein kinase HCK (Homo sapiens, UniProt P08631).
Sequence of Tyrosine-protein kinase HCK (P08631 whole entry, canonical isoform): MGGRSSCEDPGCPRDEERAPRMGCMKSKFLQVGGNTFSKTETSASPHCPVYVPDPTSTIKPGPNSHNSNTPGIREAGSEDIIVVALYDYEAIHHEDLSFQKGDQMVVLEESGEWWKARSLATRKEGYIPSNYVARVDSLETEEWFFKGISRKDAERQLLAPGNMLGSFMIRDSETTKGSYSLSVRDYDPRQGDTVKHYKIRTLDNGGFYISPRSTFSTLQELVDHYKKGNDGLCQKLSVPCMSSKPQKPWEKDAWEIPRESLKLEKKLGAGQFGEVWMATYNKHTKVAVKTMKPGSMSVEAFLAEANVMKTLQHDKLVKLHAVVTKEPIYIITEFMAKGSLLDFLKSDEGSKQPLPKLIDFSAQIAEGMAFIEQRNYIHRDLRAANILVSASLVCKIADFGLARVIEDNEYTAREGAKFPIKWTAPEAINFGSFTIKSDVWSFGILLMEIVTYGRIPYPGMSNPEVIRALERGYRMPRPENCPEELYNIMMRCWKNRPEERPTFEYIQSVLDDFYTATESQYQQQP
For assay [6], the target named is Phosphorylase b kinase gamma catalytic chain, skeletal muscle/heart isoform (Homo sapiens, UniProt Q16816).
Sequence of Phosphorylase b kinase gamma catalytic chain, skeletal muscle/heart isoform (Q16816 whole entry, the tested form may be a part, canonical isoform): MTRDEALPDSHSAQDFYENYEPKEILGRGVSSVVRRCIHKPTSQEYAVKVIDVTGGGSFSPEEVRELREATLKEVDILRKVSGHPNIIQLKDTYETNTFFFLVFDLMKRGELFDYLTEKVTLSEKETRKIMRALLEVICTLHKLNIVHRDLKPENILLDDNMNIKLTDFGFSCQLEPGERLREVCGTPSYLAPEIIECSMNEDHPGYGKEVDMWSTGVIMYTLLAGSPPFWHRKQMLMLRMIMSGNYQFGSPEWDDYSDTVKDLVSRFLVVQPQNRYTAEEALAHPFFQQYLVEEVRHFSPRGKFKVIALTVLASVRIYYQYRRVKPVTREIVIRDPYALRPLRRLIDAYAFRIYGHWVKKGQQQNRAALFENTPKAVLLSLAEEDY
For another assay, the target named is LIM domain kinase 1 (Homo sapiens, UniProt P53667).
Sequence of LIM domain kinase 1 (P53667 whole entry, the tested form may be a part): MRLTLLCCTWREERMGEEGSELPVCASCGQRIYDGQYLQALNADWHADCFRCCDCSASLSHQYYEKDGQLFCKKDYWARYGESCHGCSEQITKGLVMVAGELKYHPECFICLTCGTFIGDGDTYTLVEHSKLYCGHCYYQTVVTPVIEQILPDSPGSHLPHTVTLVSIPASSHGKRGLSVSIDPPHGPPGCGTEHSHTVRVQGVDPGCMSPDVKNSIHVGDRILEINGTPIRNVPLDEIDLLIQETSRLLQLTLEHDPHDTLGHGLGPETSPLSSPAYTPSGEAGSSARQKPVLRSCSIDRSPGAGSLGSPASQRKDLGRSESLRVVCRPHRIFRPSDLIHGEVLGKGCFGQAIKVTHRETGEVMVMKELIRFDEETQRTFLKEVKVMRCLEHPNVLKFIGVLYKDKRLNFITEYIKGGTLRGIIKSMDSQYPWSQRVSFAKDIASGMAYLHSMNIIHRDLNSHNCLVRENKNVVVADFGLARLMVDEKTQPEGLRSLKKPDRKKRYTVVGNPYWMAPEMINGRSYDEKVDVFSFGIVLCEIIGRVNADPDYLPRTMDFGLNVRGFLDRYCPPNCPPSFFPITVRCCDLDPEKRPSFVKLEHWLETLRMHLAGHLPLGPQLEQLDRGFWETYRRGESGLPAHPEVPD
Assay [7] addresses T2, Mitogen-activated protein kinase kinase kinase 5 (Homo sapiens, UniProt Q99683).
T2 sequence (Q99683 whole entry): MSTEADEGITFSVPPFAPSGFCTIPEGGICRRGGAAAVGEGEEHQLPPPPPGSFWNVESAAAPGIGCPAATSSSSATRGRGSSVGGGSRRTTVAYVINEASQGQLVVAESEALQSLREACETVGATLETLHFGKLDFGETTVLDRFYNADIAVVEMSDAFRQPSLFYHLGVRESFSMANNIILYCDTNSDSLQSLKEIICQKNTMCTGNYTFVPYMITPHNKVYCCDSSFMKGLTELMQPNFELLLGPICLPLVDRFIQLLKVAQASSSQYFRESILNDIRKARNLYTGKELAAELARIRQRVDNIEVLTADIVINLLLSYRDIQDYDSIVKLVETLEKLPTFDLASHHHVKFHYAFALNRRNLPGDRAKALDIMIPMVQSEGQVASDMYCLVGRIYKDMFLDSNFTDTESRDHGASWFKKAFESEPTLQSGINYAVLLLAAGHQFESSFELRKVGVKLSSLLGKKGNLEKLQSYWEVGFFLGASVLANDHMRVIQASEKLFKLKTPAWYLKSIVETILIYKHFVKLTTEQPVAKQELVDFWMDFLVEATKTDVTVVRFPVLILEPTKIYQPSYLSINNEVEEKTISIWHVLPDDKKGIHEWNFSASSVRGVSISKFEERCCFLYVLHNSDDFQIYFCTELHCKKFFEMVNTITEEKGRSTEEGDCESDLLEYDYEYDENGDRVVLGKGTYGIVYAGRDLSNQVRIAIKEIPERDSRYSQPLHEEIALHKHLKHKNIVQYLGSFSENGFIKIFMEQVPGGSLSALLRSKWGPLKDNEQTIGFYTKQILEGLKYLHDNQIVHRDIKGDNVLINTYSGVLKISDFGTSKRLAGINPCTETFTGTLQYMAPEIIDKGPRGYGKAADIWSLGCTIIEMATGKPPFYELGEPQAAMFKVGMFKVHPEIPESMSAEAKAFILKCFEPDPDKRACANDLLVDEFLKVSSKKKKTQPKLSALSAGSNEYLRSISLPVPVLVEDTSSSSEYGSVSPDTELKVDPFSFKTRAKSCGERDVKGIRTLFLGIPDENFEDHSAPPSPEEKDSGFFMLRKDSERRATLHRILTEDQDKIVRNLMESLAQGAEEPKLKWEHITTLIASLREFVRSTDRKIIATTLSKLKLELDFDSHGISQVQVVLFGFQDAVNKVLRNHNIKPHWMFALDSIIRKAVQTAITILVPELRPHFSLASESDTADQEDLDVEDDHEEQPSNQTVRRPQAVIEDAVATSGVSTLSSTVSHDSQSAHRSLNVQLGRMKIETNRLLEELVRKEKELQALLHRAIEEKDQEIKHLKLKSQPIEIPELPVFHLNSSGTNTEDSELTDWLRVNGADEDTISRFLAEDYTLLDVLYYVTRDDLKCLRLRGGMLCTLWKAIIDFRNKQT

In assay [8] the target is Proto-oncogene tyrosine-protein kinase Src (Homo sapiens, UniProt P12931).
Sequence of Proto-oncogene tyrosine-protein kinase Src (P12931 2-536 limits assumed): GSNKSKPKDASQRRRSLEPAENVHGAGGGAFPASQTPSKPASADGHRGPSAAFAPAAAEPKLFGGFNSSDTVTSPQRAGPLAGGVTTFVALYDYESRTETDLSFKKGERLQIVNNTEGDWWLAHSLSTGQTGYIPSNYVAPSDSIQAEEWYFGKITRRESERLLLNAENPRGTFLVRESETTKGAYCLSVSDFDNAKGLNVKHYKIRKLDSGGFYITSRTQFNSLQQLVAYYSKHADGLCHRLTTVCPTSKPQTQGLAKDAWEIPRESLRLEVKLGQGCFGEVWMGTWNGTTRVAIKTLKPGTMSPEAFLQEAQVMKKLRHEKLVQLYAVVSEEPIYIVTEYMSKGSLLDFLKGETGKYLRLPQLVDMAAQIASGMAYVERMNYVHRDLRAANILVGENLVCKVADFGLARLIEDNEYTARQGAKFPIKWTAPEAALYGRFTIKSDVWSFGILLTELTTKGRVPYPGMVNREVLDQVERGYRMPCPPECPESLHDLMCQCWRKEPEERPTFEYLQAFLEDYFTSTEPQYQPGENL

Sequence of Casein kinase I isoform gamma-1 (Q9HCP0 whole entry, canonical isoform): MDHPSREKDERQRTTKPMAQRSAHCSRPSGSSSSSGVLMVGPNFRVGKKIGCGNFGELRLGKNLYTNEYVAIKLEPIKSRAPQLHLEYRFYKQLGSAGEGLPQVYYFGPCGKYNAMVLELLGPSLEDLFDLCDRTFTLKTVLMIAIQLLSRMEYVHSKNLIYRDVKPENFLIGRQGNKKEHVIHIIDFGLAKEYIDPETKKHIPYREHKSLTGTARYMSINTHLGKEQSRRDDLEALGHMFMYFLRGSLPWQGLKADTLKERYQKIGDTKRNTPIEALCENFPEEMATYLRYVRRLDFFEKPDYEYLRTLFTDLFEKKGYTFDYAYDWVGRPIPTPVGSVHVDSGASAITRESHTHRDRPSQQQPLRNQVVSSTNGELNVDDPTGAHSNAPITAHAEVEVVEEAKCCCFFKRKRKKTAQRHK
Sequence of Serine/threonine-protein kinase PAK 5 (Q9P286 whole entry): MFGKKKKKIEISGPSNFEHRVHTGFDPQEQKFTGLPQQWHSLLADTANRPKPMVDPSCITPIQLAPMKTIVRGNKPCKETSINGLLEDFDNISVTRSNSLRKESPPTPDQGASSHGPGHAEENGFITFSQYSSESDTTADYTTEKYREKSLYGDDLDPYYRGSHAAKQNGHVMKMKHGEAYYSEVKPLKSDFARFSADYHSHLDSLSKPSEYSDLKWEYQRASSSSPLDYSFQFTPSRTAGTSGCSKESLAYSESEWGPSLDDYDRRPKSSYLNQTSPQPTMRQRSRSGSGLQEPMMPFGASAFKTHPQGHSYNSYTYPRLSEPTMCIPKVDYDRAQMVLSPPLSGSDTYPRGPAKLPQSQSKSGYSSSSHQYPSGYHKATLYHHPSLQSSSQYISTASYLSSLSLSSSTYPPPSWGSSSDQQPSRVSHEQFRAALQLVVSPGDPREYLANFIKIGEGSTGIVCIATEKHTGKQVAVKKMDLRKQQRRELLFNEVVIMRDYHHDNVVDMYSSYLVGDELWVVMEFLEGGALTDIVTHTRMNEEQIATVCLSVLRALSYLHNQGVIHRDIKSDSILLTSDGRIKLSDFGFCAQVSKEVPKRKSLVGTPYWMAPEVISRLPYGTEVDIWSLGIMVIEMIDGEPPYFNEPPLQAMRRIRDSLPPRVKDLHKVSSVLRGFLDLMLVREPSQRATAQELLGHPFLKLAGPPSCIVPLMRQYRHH

Take `C#Cc1cccc(Nc2ncnc3cc(OCCOC)c(OCCOC)cc23)c1` [ERLOTINIB]: the Kd entry in [1], in [2], in assay [3], in assay [4], in [5] and in assay [6] was “Not Active” each time. Further, the Kd result (on LIM domain kinase 1; in [7]) was “Not Active” in each case.
Turning to `Cc1ccc(NC(=O)c2ccc(CN3CCN(C)CC3)cc2)cc1Nc1nccc(-c2cccnc2)n1` [IMATINIB], the Kd result in assay [1], in assay [2], in [3], in [4], in [5] and in [6] was “Not Active” in each case. Also, the Kd result (on LIM domain kinase 1; in assay [7]) was “Not Active” in each case.
Turning to `O=c1ncn2nc(Sc3ccc(F)cc3F)ccc2c1-c1c(Cl)cccc1Cl` [NEFLAMAPIMOD], the Kd result (in assay [1]; in assay [2]; in assay [3]; in assay [4]; in assay [6]; at LIM domain kinase 1) was “Not Active” in each case. Also, in [7], the Kd result is “Not Active”.
`CCOc1cc2ncc(C#N)c(Nc3ccc(F)c(Cl)c3)c2cc1NC(=O)/C=C/CN(C)C` [PELITINIB]: the Kd entry in assay [1] is “Not Active”; in assay [8] (read-out: Kd), 120 nM; in assay [4] it was “Not Active”; at LIM domain kinase 1 it was “Not Active”; in assay [7], “Not Active”.
Take `Oc1ccc(-c2nc(-c3ccc(F)cc3)c(-c3ccncc3)[nH]2)cc1` [SB-202190]: the Kd entry in [1], in assay [8], in [2], in assay [3], in [4] and in [5] was “Not Active” throughout. Also, the Kd result (in assay [6]; on LIM domain kinase 1; in assay [7]) was “Not Active” in each case.
On to `C[S+]([O-])c1ccc(-c2nc(-c3ccc(F)cc3)c(-c3ccncc3)[nH]2)cc1` (stereo not drawn) [SB-203580], for which the equilibrium dissociation constant (Kd) result in assay [1], in assay [8], in assay [2], in [3], in assay [4] and in assay [5] was “Not Active” each time. The Kd entry (in assay [6]; at LIM domain kinase 1; in [7]) was “Not Active” throughout.
On to `CC[C@H](CO)Nc1nc(NCc2ccccc2)c2ncn(C(C)C)c2n1` [SELICICLIB], for which the Kd result (in assay [8]; in [2]; in assay [4]; in assay [5]; in assay [6]; at LIM domain kinase 1) was “Not Active” each time. In addition, the Kd result in assay [7] is on record as “Not Active”.
As to `Oc1c2ccccc2c2c3c(cccc13)N=N2` [SP-600125], the Kd entry (in assay [8]; in assay [4]; in [5]; in assay [6]; at LIM domain kinase 1; in assay [7]) was “Not Active” each time.
Regarding `COc1cc2c(N3CCN(C(=O)Nc4ccc(OC(C)C)cc4)CC3)ncnc2cc1OCCCN1CCCCC1` [TANDUTINIB], the dissociation constant (Kd) result in assay [1], in assay [8], in assay [2], in assay [3], in [4] and in assay [5] was “Not Active” throughout. Also, the dissociation constant Kd result (in [6]; at LIM domain kinase 1; in [7]) was “Not Active” in each case.
